Converted amounts (≈) assume the structure as drawn.
Experiments:
Escherichia coli [1] = assay: Antimicrobial activity against Escherichia coli after 18 to 24 hrs; type: functional
Escherichia coli [2] = assay: Antimicrobial activity against Escherichia coli at 20 uL after 18 to 24 hrs by disk diffusion method; type: functional
Bacillus subtilis [3] = assay: Antimicrobial activity against Bacillus subtilis after 18 to 24 hrs; type: functional
Bacillus subtilis [4] = assay: Antimicrobial activity against Bacillus subtilis at 20 uL after 18 to 24 hrs by disk diffusion method; type: functional
Staphylococcus aureus [5] = assay: Antimicrobial activity against Staphylococcus aureus after 18 to 24 hrs; type: functional
Staphylococcus aureus [6] = assay: Antimicrobial activity against Staphylococcus aureus at 20 uL after 18 to 24 hrs by disk diffusion method; type: functional
Candida albicans [7] = assay: Antimicrobial activity against Candida albicans after 18 to 24 hrs; type: functional
Artemia salina [8] = assay: Toxicity in Artemia salina assessed as mortality at 100 ppm after 24 hrs; type: organism-based; details: in vivo
Artemia salina [9] = assay: Toxicity in Artemia salina assessed as mortality at 250 ppm after 24 hrs; type: organism-based; details: in vivo
Artemia salina [10] = assay: Toxicity in Artemia salina assessed as mortality at 500 ppm after 24 hrs; type: organism-based; details: in vivo
Artemia salina [11] = assay: Toxicity in Artemia salina assessed as mortality at 1000 ppm after 24 hrs; type: organism-based; details: in vivo
Artemia salina [12] = assay: Toxicity in Artemia salina after 24 hrs; type: organism-based; details: in vivo
Candida albicans [13] = assay: Antimicrobial activity against Candida albicans after 18 to 24 hrs at 20 uL by disk diffusion assay; type: functional

Compound | MIC (Escherichia coli [1]) [µg/mL] | diameter of the inhibition zone (DIZ) (Escherichia coli [2]) [mm] | MIC (Bacillus subtilis [3]) [µg/mL] | diameter of the inhibition zone (DIZ) (Bacillus subtilis [4]) [mm] | MIC (Staphylococcus aureus [5]) [µg/mL] | diameter of the inhibition zone (DIZ) (Staphylococcus aureus [6]) [mm] | MIC (Candida albicans [7]) [µg/mL] | LC50 (Artemia salina [8]) [ppm] | LC50 (Artemia salina [9]) [ppm] | LC50 (Artemia salina [10]) [ppm] | LC50 (Artemia salina [11]) [ppm] | LC50 (Artemia salina [12]) [ppm] | diameter of the inhibition zone (DIZ) (Candida albicans [13]) [mm]
CCCCCCCC(=O)OC[C@H](NC(=O)c1cccnc1O)C(=O)OCCCC | 75 (≈ 184 µM) | 7 | 50 (≈ 122 µM) | 7 | 100 (≈ 245 µM) | 7 | 250 (≈ 612 µM) | 0 | 0 | 2.78 | 11.02 | 3620.41 | 7.83
CCCCOC(=O)[C@H](COC(C)=O)NC(=O)c1cccnc1O | 250 (≈ 771 µM) | 7 | 250 (≈ 771 µM) | 7 | 250 (≈ 771 µM) | 7.5 | 500 (≈ 1540 µM) | 4.94 | 9.7 | 39.62 | 58.66 | 811.01 | 7.5
CCCC[C@H]1C(=O)O[C@H](C)[C@H](NC(=O)c2cccc(NC=O)c2O)C(=O)O[C@@H](C)[C@@H]1OC(=O)CC(C)C [ANTIMYCIN A3] | 50 (≈ 96 µM) | 7 | 250 (≈ 480 µM) | 8.5 | 250 (≈ 480 µM) | 8 | 50 (≈ 96 µM) |  |  |  |  |  | 10
CCCCOC(=O)[C@H](COC(=O)CCc1ccccc1)NC(=O)c1cccnc1O | 1000 (≈ 2410 µM) | 7.83 | 500 (≈ 1210 µM) | 7 | 1000 (≈ 2410 µM) | 7.5 | 1000 (≈ 2410 µM) | 26.67 | 55.58 | 76.67 | 100 | 266.83 | 7.5

— ChEMBL document CHEMBL1177833, “Synthesis and biological activity of 2-hydroxynicotinoyl-serine-butyl esters related to antibiotic UK-3A” (Bioorg Med Chem Lett, 2010)
